Source: PubChem BioAssay (NCI)
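Briefly, cells in 96-well plates were exposed to five compound concentrations for 48 h, and endpoints were estimated by linear interpolation. TGI denotes the concentration required for complete inhibition of growth.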

Key:
Assay in all cases: DTP human tumour cell line panel, 48 h
[1] = system: 786-0 renal
[2] = system: A498 renal
[3] = system: A549 NSCLC
[4] = system: ACHN renal
[5] = system: CAKI-1 renal
[6] = system: CCRF-CEM leukemia
[7] = system: COLO 205 colon
[8] = system: DLD-1 colon
[9] = system: DMS 114 small cell lung
[10] = system: DMS 273 small cell lung
[11] = system: EKVX NSCLC
[12] = system: HCC-2998 colon
[13] = system: HCT-116 colon
[14] = system: HL-60(TB) leukemia
[15] = system: HOP-18 NSCLC
[16] = system: HOP-62 NSCLC
[17] = system: HOP-92 NSCLC
[18] = system: HT29 colon
[19] = system: IGROV1 ovarian
[20] = system: K-562 leukemia
[21] = system: KM12 colon
[22] = system: KM20L2 colon
[23] = system: LOX IMVI melanoma
[24] = system: LXFL 529 NSCLC
[25] = system: M14 melanoma
[26] = system: M19-MEL melanoma
[27] = system: MALME-3M melanoma
[28] = system: MOLT-4 leukemia
[29] = system: NCI-H226 lung
[30] = system: NCI-H23 lung
[31] = system: NCI-H460 lung
[32] = system: NCI-H522 lung
[33] = system: OVCAR-3 ovarian
[34] = system: OVCAR-4 ovarian
[35] = system: OVCAR-5 ovarian
[36] = system: OVCAR-8 ovarian
[37] = system: RPMI-8226 leukemia
[38] = system: RXF 393 renal
[39] = system: SF-268 CNS
[40] = system: SF-295 CNS
[41] = system: SF-539 CNS
[42] = system: SK-MEL-28 melanoma
[43] = system: SK-OV-3 ovarian
[44] = system: SN12C renal
[45] = system: SNB-19 CNS
[46] = system: SNB-75 CNS
[47] = system: SNB-78 CNS
[48] = system: SR leukemia
[49] = system: SW-620 colon
[50] = system: TK-10 renal
[51] = system: U251 CNS
[52] = system: UACC-257 melanoma
[53] = system: UACC-62 melanoma
[54] = system: UO-31 renal
[55] = system: XF 498 CNS
[56] = system: RXF-631 renal
[57] = system: SK-MEL-2 melanoma

## Cc1c(C(=O)/C=C/c2ccc([N+](=O)[O-])cc2)[n+](=O)c2ccccc2n1[O-]
[1]
  TGI: > 100 µM
[2]
  TGI: > 100 µM
[3]
  TGI: > 100 µM
[4]
  TGI: > 100 µM
[5]
  TGI: > 100 µM
[6]
  TGI: 99.2 µM
[7]
  TGI: > 100 µM
[8]
  TGI: > 100 µM
[9]
  TGI: > 100 µM
[10]
  TGI: > 100 µM
[11]
  TGI: > 100 µM
[12]
  TGI: > 100 µM
[13]
  TGI: > 100 µM
[14]
  TGI: 2.89 µM
[15]
  TGI: > 100 µM
[16]
  TGI: > 100 µM
[17]
  TGI: > 100 µM
[18]
  TGI: > 100 µM
[19]
  TGI: > 100 µM
[20]
  TGI: > 100 µM
[21]
  TGI: > 100 µM
[22]
  TGI: > 100 µM
[23]
  TGI: > 100 µM
[24]
  TGI: > 100 µM
[25]
  TGI: > 100 µM
[26]
  TGI: > 100 µM
[27]
  TGI: > 100 µM
[28]
  TGI: 82.2 µM
[29]
  TGI: > 100 µM
[30]
  TGI: 86.7 µM
[31]
  TGI: > 100 µM
[32]
  TGI: 53.6 µM
[33]
  TGI: > 100 µM
[34]
  TGI: > 100 µM
[35]
  TGI: > 100 µM
[36]
  TGI: > 100 µM
[37]
  TGI: > 100 µM
[38]
  TGI: > 100 µM
[39]
  TGI: > 100 µM
[40]
  TGI: > 100 µM
[41]
  TGI: > 100 µM
[42]
  TGI: > 100 µM
[43]
  TGI: > 100 µM
[44]
  TGI: > 100 µM
[45]
  TGI: > 100 µM
[46]
  TGI: > 100 µM
[47]
  TGI: > 100 µM
[48]
  TGI: > 100 µM
[49]
  TGI: > 100 µM
[50]
  TGI: > 100 µM
[51]
  TGI: > 100 µM
[52]
  TGI: > 100 µM
[53]
  TGI: > 100 µM
[54]
  TGI: > 100 µM
[55]
  TGI: > 100 µM

## O=S(O)CCCCCSSc1ccc(Cl)cc1
[2]
  TGI: 36.6 µM
[6]
  TGI: > 100 µM
[8]
  TGI: 67.5 µM
[11]
  TGI: > 100 µM
[12]
  TGI: 73.7 µM
[13]
  TGI: 77.2 µM
[14]
  TGI: > 100 µM
[16]
  TGI: 41.3 µM
[18]
  TGI: 70.5 µM
[20]
  TGI: > 100 µM
[21]
  TGI: 60.7 µM
[23]
  TGI: 29.9 µM
[24]
  TGI: 27 µM
[25]
  TGI: 71.5 µM
[26]
  TGI: 91 µM
[27]
  TGI: 89.9 µM
[30]
  TGI: 44.4 µM
[31]
  TGI: > 100 µM
[32]
  TGI: 28.5 µM
[33]
  TGI: 31.3 µM
[34]
  TGI: > 100 µM
[35]
  TGI: 50.2 µM
[38]
  TGI: 31.4 µM
[56]
  TGI: 46.8 µM
[39]
  TGI: 23.5 µM
[41]
  TGI: 29.5 µM
[57]
  TGI: 34.7 µM
[42]
  TGI: 66.6 µM
[43]
  TGI: > 100 µM
[44]
  TGI: 31.1 µM
[45]
  TGI: 91.4 µM
[46]
  TGI: 56.2 µM
[47]
  TGI: 70.3 µM
[50]
  TGI: 54.4 µM
[51]
  TGI: 21.7 µM
[52]
  TGI: 59.3 µM
[54]
  TGI: 26.3 µM
[55]
  TGI: 36 µM
